From patent US20060270591A1, “Androgen receptor coregulators” (priority 2002, published 2006)

Columns and labels:
[1] = tested on: AR; conditions: CV-1 cells; reported by others; cited from earlier work
[2] = tested on: p27^KIP1; experiment: Western blot of p27KIP1 in PC-3(AR2) cells; assay type: cell-based, human; conditions: 10 nM DHT
Procedure: 41. […] (A) C2C12, COS-1, DU145 and PC-3 cell lines were co-transfected with 30 ng pSG5-AR, 0.5 μg MMTV-Luc, 1 ng pRL-SV40, various amounts of pSG5-bSV as indicated, and adjusted to total amount of 2 μg DNA with pSG5. The assay method was the same as FIG. 2. After measuring the luciferase activity, values relative to lane 1 were calculated. Results are the mean±S.D. of three independent experiments. (B) PC-3 was co-transfected with 30 ng pSG5-AR, 1.5 μg pSG5-bSV, 1 ng pRL-SV40, and 0.5 μg reporter gene as indicated by using SuperFect. […] (C) PC-3(AR2) cell line was transfected with EGFP or EGFP-bSV expressing vector using SuperFect. […] Proteins extracted from cells were loaded on 15% SDS-PAGE and analyzed by western blotting. The intensity of each p27 band was quantified and normalized with control protein which is a non-specific band pick up by the antibody in the same blot. The relative intensities to lane 1 were calculated.
478. Protein samples extracted from the cell were separated on 15% SDS-PAGE and transferred to nitrocellulose membranes. Membranes were incubated 1 h with 5% non-fat milk in TBST at room temperature, followed by the antibodies against p27^(KIP1) (Santa Cruz), followed by AP conjugated goat-antimouse antibody. Blots were developed using the AP developing reagent from Bio-Rad. Band intensity was quantitated by Collage® image analysis software (Fotodyne Inc.).

[3] = biological target: T1, AR N-terminus and AR C-terminus (Homo sapiens, UniProt P10275); experiment: Mammalian two-hybrid assay of AR N-C interaction in PC-3 cells; assay type: cell-based; conditions: DHT
T1 construct: AR DBD plus LBD (GST-AR-DL); expressed in transfected cells; host or cells: PC-3 cells (human prostate cancer line)
T1 sequence (P10275 555-920 limits assumed): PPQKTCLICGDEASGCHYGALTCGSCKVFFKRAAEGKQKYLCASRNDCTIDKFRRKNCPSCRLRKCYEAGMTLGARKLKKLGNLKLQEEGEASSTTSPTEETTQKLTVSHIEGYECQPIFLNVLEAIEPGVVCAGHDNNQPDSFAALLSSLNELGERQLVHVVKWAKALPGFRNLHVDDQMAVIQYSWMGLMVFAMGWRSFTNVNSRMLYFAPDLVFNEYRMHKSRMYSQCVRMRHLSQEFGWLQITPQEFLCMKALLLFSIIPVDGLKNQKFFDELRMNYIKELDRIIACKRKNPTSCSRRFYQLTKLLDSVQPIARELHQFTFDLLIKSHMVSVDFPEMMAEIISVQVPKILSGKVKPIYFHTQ
T1 sequence (P10275 1-559 partner limits assumed): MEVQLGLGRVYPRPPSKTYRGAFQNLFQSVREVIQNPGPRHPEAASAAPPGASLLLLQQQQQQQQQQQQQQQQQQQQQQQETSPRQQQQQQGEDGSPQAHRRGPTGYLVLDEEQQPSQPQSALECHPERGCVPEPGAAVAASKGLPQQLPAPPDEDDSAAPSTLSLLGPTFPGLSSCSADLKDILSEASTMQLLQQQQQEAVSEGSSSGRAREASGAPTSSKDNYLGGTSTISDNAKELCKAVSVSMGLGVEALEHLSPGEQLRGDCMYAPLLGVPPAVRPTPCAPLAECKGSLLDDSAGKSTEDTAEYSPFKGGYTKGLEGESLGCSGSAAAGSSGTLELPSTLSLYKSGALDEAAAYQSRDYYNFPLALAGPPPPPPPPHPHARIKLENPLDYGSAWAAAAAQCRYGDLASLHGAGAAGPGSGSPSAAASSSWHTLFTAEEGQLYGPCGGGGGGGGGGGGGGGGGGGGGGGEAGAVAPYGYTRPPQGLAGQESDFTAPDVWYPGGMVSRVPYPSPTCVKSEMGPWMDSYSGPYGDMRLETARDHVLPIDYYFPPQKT
Procedure: 44. […] PC-3 cells were transfected with 30 ng plasmids expressing Gal4(DBD)-AR-DL, VP16 or VP16-ARN combined with 1.5 μg pSG5, pSG5-bSV, -ARA55, or -SRC-1α as indicated. The reporter plasmid pG5-Luc (0.5 μg) and control plasmid pRL-Luc (1 ng) were transfected to every sample. The assay was carried out as described in FIG. 29C.
474. Mouse myoblast cell line (C2C12), human prostate cancer cell lines (PC-3 and DU145), and monkey kidney fibroblast cell line (COS-1) were maintained in Dulbecco's minimum essential medium (DMEM) containing penicillin (25 units/ml), streptomycin ([…]), and 10% fetal bovine serum (FBS). In mammalian two-hybrid assay, transfections were performed using the calcium phosphate precipitation method as described previously (15). Briefly, 1.5-3×10^5 cells were plated on 35-mm dishes for 24 h, and the medium was changed to DMEM containing 10% charcol-dextran stripped FBS (CD-FBS) 2 h before transfection. Cells were transfected with 0.5 μg plasmids expressing Gal4(DBD) and VP-16 fusion proteins as indicated. Gal4 response element controlled Firefly luciferase expression plasmid, pG5-Luc, was used as reporter gene. A Renilla luciferase expression plasmid pRL-SV40 was used as an internal control for transfection efficiency. The total amount of DNA was adjusted to 5 μg with pCMX-VP16 vectors. […]

Sequence of AR (P10275 whole entry, the tested form may be a part): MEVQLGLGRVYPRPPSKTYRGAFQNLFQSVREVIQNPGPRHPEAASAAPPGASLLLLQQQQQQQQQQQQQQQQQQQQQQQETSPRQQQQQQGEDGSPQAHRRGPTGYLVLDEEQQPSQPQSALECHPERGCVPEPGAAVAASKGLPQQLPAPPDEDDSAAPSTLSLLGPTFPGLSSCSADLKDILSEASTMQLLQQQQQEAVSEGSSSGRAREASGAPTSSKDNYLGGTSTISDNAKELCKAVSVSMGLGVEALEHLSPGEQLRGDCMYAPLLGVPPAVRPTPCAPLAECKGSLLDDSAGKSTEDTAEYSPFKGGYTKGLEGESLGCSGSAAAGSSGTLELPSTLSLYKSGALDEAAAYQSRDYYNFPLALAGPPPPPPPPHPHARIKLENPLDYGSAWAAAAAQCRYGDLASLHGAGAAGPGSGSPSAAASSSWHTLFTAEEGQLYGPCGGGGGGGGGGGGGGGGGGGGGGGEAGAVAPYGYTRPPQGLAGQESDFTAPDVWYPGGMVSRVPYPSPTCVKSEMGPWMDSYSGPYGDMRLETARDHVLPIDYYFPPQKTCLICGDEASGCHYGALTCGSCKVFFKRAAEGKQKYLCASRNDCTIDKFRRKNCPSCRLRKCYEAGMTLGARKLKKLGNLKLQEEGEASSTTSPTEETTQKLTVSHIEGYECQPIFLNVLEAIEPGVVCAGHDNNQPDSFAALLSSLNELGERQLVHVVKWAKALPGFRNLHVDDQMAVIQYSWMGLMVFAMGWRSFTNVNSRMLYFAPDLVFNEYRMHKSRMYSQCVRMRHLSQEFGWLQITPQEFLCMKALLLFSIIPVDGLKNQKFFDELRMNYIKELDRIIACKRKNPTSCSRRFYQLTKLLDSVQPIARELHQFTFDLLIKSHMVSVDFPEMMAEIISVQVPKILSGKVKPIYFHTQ

Row | Substance | enhancement of AR activity [1] | p27^(KIP1) protein expression [2] | effect on AR N-C interaction [3]
1 | ARA70: ligand-enhanced AR coregulator, full length ARA70 | 2-3 fold | – | –
2 | SV: supervillin, 205 kDa actin binding protein; bovine SV (a.a. 1-1792) used in reporter assays | – | further enhanced p27^(KIP1) protein expression | mild suppressive effect
